Biological target: T1, human PAH with the R408W mutation (A375 R408W cells) (Homo sapiens, UniProt P00439, R408W)
T1 construct: expressed in transfected cells
T1 sequence (P00439 1-452 R408W): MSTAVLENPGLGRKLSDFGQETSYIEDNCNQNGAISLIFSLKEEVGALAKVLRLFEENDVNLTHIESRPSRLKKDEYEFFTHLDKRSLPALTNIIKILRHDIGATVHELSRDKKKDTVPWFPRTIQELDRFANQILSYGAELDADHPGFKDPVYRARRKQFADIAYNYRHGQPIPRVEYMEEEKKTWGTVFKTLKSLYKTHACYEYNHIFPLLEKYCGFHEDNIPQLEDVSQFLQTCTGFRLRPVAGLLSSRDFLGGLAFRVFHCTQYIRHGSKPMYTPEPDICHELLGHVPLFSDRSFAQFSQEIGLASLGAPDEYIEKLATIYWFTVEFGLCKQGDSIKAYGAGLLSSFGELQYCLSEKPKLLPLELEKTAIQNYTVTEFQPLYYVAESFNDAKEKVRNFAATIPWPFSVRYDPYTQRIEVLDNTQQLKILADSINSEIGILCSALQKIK
Assay: Cell Based Phenylalanine Flux Assay
Conditions: A375 R408W cells; 24 hrs with compound, then 20 μM sepiapterin and 800 μM 13C9,15N-Phenylalanine for 4 hours; 13C-Tyrosine by LC-MS; average where tested multiple times
Method in brief: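 Stable R408W PAH A375 cells: 24 h compound pretreatment in duplicate, then 4 h with 800 μM isotope-labelled Phe and 20 μM sepiapterin. Labelled Tyr output by LC-MS; AC50 averaged where repeated.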

Row | Compound | AC50 [nM]
1 | Cc1nc([C@@H](C)O)oc1C(=O)N1CCc2[nH]cnc2[C@H]1c1nc2cccc(F)c2o1 [Example 217, ((S)-4-(7-fluorobenzo[d]oxazol-2-yl)-6,7-dihydro-1H-imidazo[4,5-c]pyridin-5(4H)-yl)(2-((R)-1-hydroxyethyl)-4-methyloxazol-5-yl)methanone] | ≤ 500
2 | Cc1nc([C@@H](C)O)oc1C(=O)N1CCc2[nH]cnc2[C@@H]1c1nc2cccc(F)c2o1 [Example 218, ((R)-4-(7-fluorobenzo[d]oxazol-2-yl)-6,7-dihydro-1H-imidazo[4,5-c]pyridin-5(4H)-yl)(2-((R)-1-hydroxyethyl)-4-methyloxazol-5-yl)methanone] | 1000 to 5000
3 | O=C(c1cnn2cc(F)c(Cl)cc12)N1CCc2[nH]cnc2[C@H]1c1nc2cc(F)ccc2o1 [Example 219, (S)-(5-chloro-6-fluoropyrazolo[1,5-a]pyridin-3-yl)(4-(5-fluorobenzo[d]oxazol-2-yl)-6,7-dihydro-1H-imidazo[4,5-c]pyridin-5(4H)-yl)methanone] | ≤ 500
4 | O=C(c1cnn2cc(F)c(Cl)cc12)N1CCc2[nH]cnc2[C@@H]1c1nc2cc(F)ccc2o1 [Example 220, (R)-(5-chloro-6-fluoropyrazolo[1,5-a]pyridin-3-yl)(4-(5-fluorobenzo[d]oxazol-2-yl)-6,7-dihydro-1H-imidazo[4,5-c]pyridin-5(4H)-yl)methanone] | ≥ 5000
5 | CNC(C)(C)c1nc(C(F)F)c(C(=O)N2CCc3[nH]cnc3[C@H]2c2nc3cc(F)ccc3o2)o1 [Example 221, (S)-(4-(difluoromethyl)-2-(2-(methylamino)propan-2-yl)oxazol-5-yl)(4-(5-fluorobenzo[d]oxazol-2-yl)-6,7-dihydro-1H-imidazo[4,5-c]pyridin-5(4H)-yl)methanone] | 500 to 1000
6 | CNC(C)(C)c1nc(C(F)F)c(C(=O)N2CCc3[nH]cnc3[C@@H]2c2nc3cc(F)ccc3o2)o1 [Example 222, (R)-(4-(difluoromethyl)-2-(2-(methylamino)propan-2-yl)oxazol-5-yl)(4-(5-fluorobenzo[d]oxazol-2-yl)-6,7-dihydro-1H-imidazo[4,5-c]pyridin-5(4H)-yl)methanone] | 1000 to 5000
7 | C[C@H](O)c1nc(C(F)F)c(C(=O)N2CCc3[nH]cnc3[C@H]2c2nc3c(F)cccc3o2)o1 [Example 227, (4-(difluoromethyl)-2-((S)-1-hydroxyethyl)oxazol-5-yl)((S)-4-(4-fluorobenzo[d]oxazol-2-yl)-6,7-dihydro-1H-imidazo[4,5-c]pyridin-5(4H)-yl)methanone] | ≤ 500
8 | O=C(c1oc(C2(O)CC2)nc1C(F)F)N1CCc2[nH]cnc2[C@H]1c1nc2ccc(F)cc2o1 [Example 237, (S)-(4-(difluoromethyl)-2-(1-hydroxycyclopropyl)oxazol-5-yl)(4-(6-fluorobenzo[d]oxazol-2-yl)-6,7-dihydro-1H-imidazo[4,5-c]pyridin-5(4H)-yl)methanone] | 1000 to 5000
9 | O=C(c1oc(C2(O)CC2)nc1C(F)F)N1CCc2[nH]cnc2[C@@H]1c1nc2ccc(F)cc2o1 [Example 238, (R)-(4-(difluoromethyl)-2-(1-hydroxycyclopropyl)oxazol-5-yl)(4-(6-fluorobenzo[d]oxazol-2-yl)-6,7-dihydro-1H-imidazo[4,5-c]pyridin-5(4H)-yl)methanone] | 1000 to 5000

Next, values leading:

Row | AC50 [nM] | Compound
10 | 1000 to 5000 | C[C@H](O)c1nc(C(F)F)c(C(=O)N2CCc3[nH]cnc3[C@@H]2c2nc3c(F)cccc3o2)o1 [Example 228, (4-(difluoromethyl)-2-((S)-1-hydroxyethyl)oxazol-5-yl)((R)-4-(4-fluorobenzo[d]oxazol-2-yl)-6,7-dihydro-1H-imidazo[4,5-c]pyridin-5(4H)-yl)methanone]
11 | ≤ 500 | C[C@@H](O)c1nc(C(F)F)c(C(=O)N2CCc3[nH]cnc3[C@H]2c2nc3c(F)cccc3o2)o1 [Example 229, (4-(difluoromethyl)-2-((R)-1-hydroxyethyl)oxazol-5-yl)((S)-4-(4-fluorobenzo[d]oxazol-2-yl)-6,7-dihydro-1H-imidazo[4,5-c]pyridin-5(4H)-yl)methanone]
12 | 1000 to 5000 | C[C@@H](O)c1nc(C(F)F)c(C(=O)N2CCc3[nH]cnc3[C@@H]2c2nc3c(F)cccc3o2)o1 [Example 230, (4-(difluoromethyl)-2-((R)-1-hydroxyethyl)oxazol-5-yl)((R)-4-(4-fluorobenzo[d]oxazol-2-yl)-6,7-dihydro-1H-imidazo[4,5-c]pyridin-5(4H)-yl)methanone]
13 | 500 to 1000 | C[C@H](O)c1nc(C(F)F)c(C(=O)N2CCc3[nH]cnc3[C@H]2c2nc3ccc(F)cc3o2)o1 [Example 231, (4-(difluoromethyl)-2-((S)-1-hydroxyethyl)oxazol-5-yl)((S)-4-(6-fluorobenzo[d]oxazol-2-yl)-6,7-dihydro-1H-imidazo[4,5-c]pyridin-5(4H)-yl)methanone]
14 | 1000 to 5000 | C[C@H](O)c1nc(C(F)F)c(C(=O)N2CCc3[nH]cnc3[C@@H]2c2nc3ccc(F)cc3o2)o1 [Example 232, (4-(difluoromethyl)-2-((S)-1-hydroxyethyl)oxazol-5-yl)((R)-4-(6-fluorobenzo[d]oxazol-2-yl)-6,7-dihydro-1H-imidazo[4,5-c]pyridin-5(4H)-yl)methanone]
15 | 500 to 1000 | C[C@@H](O)c1nc(C(F)F)c(C(=O)N2CCc3[nH]cnc3[C@H]2c2nc3ccc(F)cc3o2)o1 [Example 239, (4-(difluoromethyl)-2-((R)-1-hydroxyethyl)oxazol-5-yl)((S)-4-(6-fluorobenzo[d]oxazol-2-yl)-6,7-dihydro-1H-imidazo[4,5-c]pyridin-5(4H)-yl)methanone]
16 | 1000 to 5000 | C[C@@H](O)c1nc(C(F)F)c(C(=O)N2CCc3[nH]cnc3[C@@H]2c2nc3ccc(F)cc3o2)o1 [Example 240, (4-(difluoromethyl)-2-((R)-1-hydroxyethyl)oxazol-5-yl)((R)-4-(6-fluorobenzo[d]oxazol-2-yl)-6,7-dihydro-1H-imidazo[4,5-c]pyridin-5(4H)-yl)methanone]
17 | 1000 to 5000 | Cc1nc([C@H](C)O)oc1C(=O)N1CCc2[nH]cnc2[C@H]1c1nc2ccc(F)cc2o1 [Example 241, ((S)-4-(6-fluorobenzo[d]oxazol-2-yl)-6,7-dihydro-1H-imidazo[4,5-c]pyridin-5(4H)-yl)(2-((S)-1-hydroxyethyl)-4-methyloxazol-5-yl)methanone]
18 | ≥ 5000 | Cc1nc([C@H](C)O)oc1C(=O)N1CCc2[nH]cnc2[C@@H]1c1nc2ccc(F)cc2o1 [Example 242, ((R)-4-(6-fluorobenzo[d]oxazol-2-yl)-6,7-dihydro-1H-imidazo[4,5-c]pyridin-5(4H)-yl)(2-((S)-1-hydroxyethyl)-4-methyloxazol-5-yl)methanone]
19 | ≤ 500 | C[C@H](O)c1nc(C(F)F)c(C(=O)N2CCc3[nH]cnc3[C@H]2c2nc3cccc(F)c3o2)o1 [Example 243, (4-(difluoromethyl)-2-((S)-1-hydroxyethyl)oxazol-5-yl)((S)-4-(7-fluorobenzo[d]oxazol-2-yl)-6,7-dihydro-1H-imidazo[4,5-c]pyridin-5(4H)-yl)methanone]
20 | 500 to 1000 | C[C@H](O)c1nc(C(F)F)c(C(=O)N2CCc3[nH]cnc3[C@@H]2c2nc3cccc(F)c3o2)o1 [Example 244, (4-(difluoromethyl)-2-((S)-1-hydroxyethyl)oxazol-5-yl)((R)-4-(7-fluorobenzo[d]oxazol-2-yl)-6,7-dihydro-1H-imidazo[4,5-c]pyridin-5(4H)-yl)methanone]

Reference: US20250171437A1 (Agios Pharmaceuticals,Inc., priority 2022, published 2025)
